Laboratory results published in ChEMBL document CHEMBL6182931, “Chemical Evolution of Aplithianine Class of Serine/Threonine Kinase Inhibitors” (J Med Chem, 2025).
Active and inactive are the calls of the source. The rule behind the calls is not given here.

System: not listed separately
Test: Inhibition of DNAJB1-PKAcalpha (unknown origin) using biotinylated-peptide substrate CREB incubated for 45 mins in presence of ATP and cAMP by ELISA
Design: species or system Homo sapiens

SMILES	IC50
CN[C@@H]1CCCN(C(=O)C2=CN(c3ncnc4[nH]cc(C)c34)CCS2)C1	50 nM
FC(F)(F)COc1cc(N2C=C(c3ccnc4[nH]ccc34)SCC2)ncn1	820 nM
CN[C@@H]1CCCN(C(=O)C2=CN(c3ncnc4[nH]ccc34)CCS2)C1	87 nM
NCCCCCCNC(=O)C1=CN(c2ncnc3[nH]ccc23)CCS1	2900 nM
O=C(NCCNC(=O)c1ccccc1)C1=CN(c2ncnc3[nH]cnc23)CCS1	> 10000 nM
Cc1c[nH]c2nccc(N3C=C(C(=O)N4CCC[C@@](C)(N)C4)SCC3)c12	43 nM
C1=C(c2cnco2)SCCN1c1ncnc2[nH]ccc12	2900 nM
Cc1c[nH]c2ncnc(N3C=C(c4cccnc4)SCC3)c12	> 10000 nM
O=C(NC[C@H]1CCCCN1)C1=CN(c2ncnc3[nH]ccc23)CCS1	680 nM
C[C@H](CN)NC(=O)C1=CN(c2ncnc3[nH]ccc23)CCS1	530 nM
CN[C@H]1CCCN(C(=O)C2=CN(c3ccnc4[nH]ccc34)CCS2)C1	270 nM
Cn1nccc1C1=CN(c2ncnc3[nH]cnc23)CCS1	7200 nM
CN[C@@H]1CCCN(C(=O)C2=CN(c3ccnc4[nH]cc(C)c34)CCS2)C1	730 nM
O=C(N[C@H](c1ccccc1)[C@H]1CCCN1)C1=CN(c2ncnc3[nH]ccc23)CCS1	82 nM
NC1(CNC(=O)C2=CN(c3ncnc4[nH]ccc34)CCS2)CCC1	180 nM
Cc1c[nH]c2nccc(N3C=C(C(=O)N4CCC[C@](C)(N)C4)SCC3)c12	500 nM
N[C@@H]1CCCC[C@@H]1NC(=O)C1=CN(c2ncnc3[nH]ccc23)CCS1	130 nM
C1=C(c2cccnc2)SCCN1c1ncnc2[nH]cnc12	> 10000 nM
NCCCNC(=O)C1=CN(c2ncnc3[nH]ccc23)CCS1	360 nM
C[C@@H](N)CNC(=O)C1=CN(c2ncnc3[nH]ccc23)CCS1	180 nM
O=C(N[C@@H]1CCNC1)C1=CN(c2ncnc3[nH]ccc23)CCS1	380 nM
Cc1c[nH]c2ncnc(N3C=C(c4cnn(C)c4)SCC3)c12	5500 nM
FC(F)(F)c1cc(N2C=C(c3ccnc4[nH]ccc34)SCC2)ncn1	2400 nM
O=C(NC[C@H]1CCCN1)C1=CN(c2ncnc3[nH]ccc23)CCS1	380 nM
O=C(N[C@H]1CCCNC1)C1=CN(c2ncnc3[nH]ccc23)CCS1	66 nM
CN(CCN)C(=O)C1=CN(c2ncnc3[nH]ccc23)CCS1	370 nM

SMILES	IC50
Cc1c[nH]c2ncnc(N3C=C(c4cc[nH]n4)SCC3)c12	5200 nM
NCCNC(=O)C1=CN(c2ncnc3[nH]cnc23)CCS1	1300 nM
O=C(C1=CN(c2ncnc3[nH]ccc23)CCS1)N1C[C@@H]2CCCN[C@@H]2C1	1100 nM
CN[C@@H]1CCCN(C(=O)C2=CN(c3ccnc4[nH]ccc34)CCS2)C1	570 nM
Cc1cc(N2C=C(c3ccnc4[nH]ccc34)SCC2)nc(C(C)(C)C)n1	> 10000 nM
Cc1ncc(C2=CN(c3ncnc4[nH]ccc34)CCS2)o1	> 10000 nM
N[C@@H]1CCCCN(C(=O)C2=CN(c3ncnc4[nH]ccc34)CCS2)C1	130 nM
N[C@@H]1CCCC[C@H]1NC(=O)C1=CN(c2ncnc3[nH]ccc23)CCS1	2300 nM
O=C(N[C@H]1CCNC1)C1=CN(c2ncnc3[nH]ccc23)CCS1	68 nM
O=C(N[C@@H](c1ccccc1)[C@@H]1CCCN1)C1=CN(c2ncnc3[nH]ccc23)CCS1	13 nM
Cc1noc(C)c1C1=CN(c2ncnc3[nH]cnc23)CCS1	6900 nM
NCCNC(=O)C1=CN(c2ccnc3[nH]ccc23)CCS1	160 nM
C[C@@]1(N)CCCN(C(=O)C2=CN(c3ncnc4[nH]cnc34)CCS2)C1	62 nM
NCCCCNC(=O)C1=CN(c2ncnc3[nH]ccc23)CCS1	210 nM
Cc1ncc(C2=CN(c3ncnc4[nH]cc(C)c34)CCS2)o1	> 10000 nM
O=C(NC[C@@H]1CCCCN1)C1=CN(c2ncnc3[nH]ccc23)CCS1	660 nM
Cn1nccc1C1=CN(c2ncnc3[nH]ccc23)CCS1	> 10000 nM
C[C@H]1C[C@@H](N)CN(C(=O)C2=CN(c3ncnc4[nH]ccc34)CCS2)C1	6 nM
Cc1noc(C)c1C1=CN(c2ncnc3[nH]cc(C)c23)CCS1	> 10000 nM
N[C@@H]1CCCN(C(=O)C2=CN(c3ccnc4[nH]ccc34)CCS2)C1	19 nM
O=C(C1=CN(c2ncnc3[nH]ccc23)CCS1)N1C[C@H]2CCCN[C@H]2C1	310 nM
O=C(NC[C@@H]1CCCN1)C1=CN(c2ncnc3[nH]ccc23)CCS1	350 nM
N[C@@H]1CCCN(C(=O)C2=CN(c3ncnc4[nH]ccc34)CCS2)C1	8 nM
N[C@H]1CCN(C(=O)C2=CN(c3ncnc4[nH]ccc34)CCS2)C1	500 nM
Cc1ncoc1C1=CN(c2ncnc3[nH]cc(C)c23)CCS1	> 10000 nM
C1=C(c2cnco2)SCCN1c1ncnc2[nH]cnc12	1800 nM

SMILES	IC50
CC(=O)NCCNC(=O)C1=CN(c2ncnc3[nH]cnc23)CCS1	> 10000 nM
C[C@]1(N)CCCN(C(=O)C2=CN(c3ncnc4[nH]cnc34)CCS2)C1	2200 nM
NCCCCCNC(=O)C1=CN(c2ncnc3[nH]ccc23)CCS1	920 nM
CN[C@H]1CCCN(C(=O)C2=CN(c3ncnc4[nH]ccc34)CCS2)C1	310 nM
NCC1(NC(=O)C2=CN(c3ncnc4[nH]ccc34)CCS2)CCC1	170 nM
Cn1cc(C2=CN(c3ncnc4[nH]cnc34)CCS2)cn1	2700 nM
Cc1c[nH]c2ncnc(N3C=C(c4ccnn4C)SCC3)c12	> 10000 nM
CN[C@H]1CCCN(C(=O)C2=CN(c3ncnc4[nH]cc(C)c34)CCS2)C1	400 nM
N[C@@H]1c2ccccc2C[C@@H]1NC(=O)C1=CN(c2ncnc3[nH]ccc23)CCS1	410 nM
C1=C(c2cccnc2)SCCN1c1ncnc2[nH]ccc12	> 10000 nM
N[C@H]1CCCC[C@H]1NC(=O)C1=CN(c2ncnc3[nH]ccc23)CCS1	2600 nM
N[C@H]1CCCN(C(=O)C2=CN(c3ccnc4[nH]ccc34)CCS2)C1	68 nM
CC(C)(C)c1cc(N2C=C(c3ccnc4[nH]ccc34)SCC2)ncn1	7900 nM
C[C@@H]1[C@H](N)CCCN1C(=O)C1=CN(c2ncnc3[nH]ccc23)CCS1	200 nM
C[C@@H](CN)NC(=O)C1=CN(c2ncnc3[nH]ccc23)CCS1	110 nM
Cc1ncoc1C1=CN(c2ncnc3[nH]cnc23)CCS1	1400 nM
CN[C@@H]1CCCN(C(=O)C2=CN(c3ncnc4[nH]cnc34)CCS2)C1	260 nM
Cc1c[nH]c2nccc(N3C=C(C(=O)N4CCC[C@H](N)C4)SCC3)c12	280 nM
C[C@@H]1CCN(C(=O)C2=CN(c3ncnc4[nH]ccc34)CCS2)C[C@@H]1N	60 nM
Cc1ncc(C2=CN(c3ncnc4[nH]cnc34)CCS2)o1	5200 nM
O=C(N[C@H](c1ccccc1)[C@@H]1CCCN1)C1=CN(c2ncnc3[nH]ccc23)CCS1	640 nM
C[C@H](N)CNC(=O)C1=CN(c2ncnc3[nH]ccc23)CCS1	180 nM
N[C@H]1CCCCN(C(=O)C2=CN(c3ncnc4[nH]ccc34)CCS2)C1	570 nM
Cc1c[nH]c2nccc(N3C=C(C(=O)N4CCC[C@@H](N)C4)SCC3)c12	37 nM
CN[C@H]1CCCN(C(=O)C2=CN(c3ncnc4[nH]cnc34)CCS2)C1	770 nM
Cc1c[nH]c2ncnc(N3C=C(c4cnco4)SCC3)c12	1800 nM

SMILES	IC50
CN[C@H]1CCCN(C(=O)C2=CN(c3ccnc4[nH]cc(C)c34)CCS2)C1	530 nM
O=C(N[C@@H]1CCCNC1)C1=CN(c2ncnc3[nH]ccc23)CCS1	690 nM
C1=C(c2ccncn2)SCCN1c1ccnc2[nH]ccc12	> 10000 nM
Cc1cc(N2C=C(c3ccnc4[nH]ccc34)SCC2)nc(N2CCCCC2)n1	> 10000 nM
CN(C[C@H]1CCCCN1)C(=O)C1=CN(c2ncnc3[nH]ccc23)CCS1	420 nM
C[C@H]1[C@H](N)CCCN1C(=O)C1=CN(c2ncnc3[nH]ccc23)CCS1	2000 nM
Cc1noc(C)c1C1=CN(c2ncnc3[nH]ccc23)CCS1	> 10000 nM
CC(C)(N)CNC(=O)C1=CN(c2ncnc3[nH]ccc23)CCS1	380 nM
Cc1ncoc1C1=CN(c2ncnc3[nH]ccc23)CCS1	4500 nM
N[C@@H]1CCN(C(=O)C2=CN(c3ncnc4[nH]ccc34)CCS2)C1	98 nM
C1=C(c2ccnc3[nH]ccc23)SCCN1c1cc(-c2ccsc2)ncn1	2200 nM
C[C@]1(N)CCCN(C(=O)C2=CN(c3ccnc4[nH]ccc34)CCS2)C1	420 nM
CN(C[C@@H]1CCCCN1)C(=O)C1=CN(c2ncnc3[nH]ccc23)CCS1	1200 nM
C1=C(c2ccnc3[nH]ccc23)SCCN1c1cc(N2CCOCC2)ncn1	600 nM
C1=C(c2ccnc3[nH]ccc23)SCCN1c1cc(OCc2ccccc2)ncn1	330 nM
C1=C(c2cc[nH]n2)SCCN1c1ncnc2[nH]cnc12	> 10000 nM
NC[C@H](NC(=O)C1=CN(c2ncnc3[nH]ccc23)CCS1)c1ccccc1	110 nM
Cc1cc(N2C=C(c3ccnc4[nH]ccc34)SCC2)nc(N(C)C)n1	3000 nM
N[C@H]1CCCN(C(=O)C2=CN(c3ncnc4[nH]ccc34)CCS2)C1	81 nM
Fc1cncnc1N1C=C(c2ccnc3[nH]ccc23)SCC1	37 nM
CCCc1cc2c(N3C=C(c4ccnc5[nH]ccc45)SCC3)ncnc2s1	1100 nM
O=C(C1=CN(c2ncnc3[nH]ccc23)CCS1)N1CCn2ccnc2C1	230 nM
C1=C(c2cc[nH]n2)SCCN1c1ncnc2[nH]ccc12	2000 nM
O=C(C1=CN(c2ncnc3[nH]ccc23)CCS1)N1CCc2nc[nH]c2C1	580 nM

System: NCI/ADR-RES
Test: Antiproliferative activity against human NCI/ADR-RES cells assessed as growth inhibition
Assay type: functional, cell-based

SMILES	Activity
C1=C(C2=CN(c3ncnc4[nH]ccc34)CCS2)CCNC1	inactive

System: SR
Test: Antiproliferative activity against human SR cells assessed as growth inhibition
Assay type: functional

SMILES	Activity
C1=C(C2=CN(c3ncnc4[nH]ccc34)CCS2)CCNC1	Active

System: OVCAR-4
Test: Antiproliferative activity against human OVCAR-4 cells assessed as growth inhibition
Assay type: functional, cell-based

SMILES	Activity
C1=C(C2=CN(c3ncnc4[nH]ccc34)CCS2)CCNC1	inactive

System: MDA-MB-468
Test: Antiproliferative activity against human MDA-MB-468 cells assessed as growth inhibition
Assay type: functional, cell-based

SMILES	Activity
C1=C(C2=CN(c3ncnc4[nH]ccc34)CCS2)CCNC1	Active

System: MOLT-4
Test: Antiproliferative activity against human MOLT-4 cells assessed as growth inhibition
Assay type: functional

SMILES	Activity
C1=C(C2=CN(c3ncnc4[nH]ccc34)CCS2)CCNC1	Active

System: LOX IMVI
Test: Antiproliferative activity against human LOX IMVI cells assessed as growth inhibition
Assay type: functional

SMILES	GI50
C1=C(C2=CN(c3ncnc4[nH]ccc34)CCS2)CCNC1	> 1000 nM
